Measured values published in ChEMBL document CHEMBL1201862, “PubChem BioAssay data set” (2004).
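48-hour exposure; five concentrations; linearly interpolated endpoints. GI50 is the concentration that inhibits growth by half.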 Active and inactive are the calls of the source. No stated cut-off is given here; in the data, active = GI50 up to about 1.1 µM and inactive = higher.

Tests used:
Test in all cases: inhibition of tumour cell growth, NCI panel, 48 h
KM12 = tested on: KM12
MDA-N = tested on: MDA-N
UACC-62 = tested on: UACC-62
MOLT-4 = tested on: MOLT-4
U-251 = tested on: U-251
RPMI-8226 = tested on: RPMI-8226
SK-MEL-5 = tested on: SK-MEL-5
A498 = tested on: A498
HCC 2998 = tested on: HCC 2998
PC-3 = tested on: PC-3
LOX IMVI = tested on: LOX IMVI
M14 = tested on: M14
OVCAR-4 = tested on: OVCAR-4
NCI-H522 = tested on: NCI-H522
RXF 393 = tested on: RXF 393
SN12C = tested on: SN12C
HCT-116 = tested on: HCT-116
IGROV-1 = tested on: IGROV-1
HL-60 = tested on: HL-60
UO-31 = tested on: UO-31
ACHN = tested on: ACHN
Hs-578T = tested on: Hs-578T
EKVX = tested on: EKVX
NCI/ADR-RES = tested on: NCI/ADR-RES
A549 = tested on: A549
COLO 205 = tested on: COLO 205
HOP-62 = tested on: HOP-62
SR = tested on: SR
MCF7 = tested on: MCF7
MDA-MB-231 = tested on: MDA-MB-231
SK-MEL-2 = tested on: SK-MEL-2
OVCAR-3 = tested on: OVCAR-3
NCI-H23 = tested on: NCI-H23
SF-295 = tested on: SF-295
TK-10 = tested on: TK-10
T47D = tested on: T47D
HT-29 = tested on: HT-29
MDA-MB-435 = tested on: MDA-MB-435
OVCAR-8 = tested on: OVCAR-8
OVCAR-5 = tested on: OVCAR-5
SK-OV-3 = tested on: SK-OV-3
K562 = tested on: K562
HCT-15 = tested on: HCT-15
CCRF-CEM = tested on: CCRF-CEM
HOP-92 = tested on: HOP-92
SF-539 = tested on: SF-539
NCI-H226 = tested on: NCI-H226
UACC-257 = tested on: UACC-257
Malme-3M = tested on: Malme-3M
786-0 = tested on: 786-0
SF-268 = tested on: SF-268
CAKI-1 = tested on: CAKI-1
SNB-19 = tested on: SNB-19
SNB-75 = tested on: SNB-75
DU-145 = tested on: DU-145
NCI-H460 = tested on: NCI-H460
SK-MEL-28 = tested on: SK-MEL-28
SW-620 = tested on: SW-620

In the case of `O=Cc1ccc2c(c1)CC1(Cc3ccccc3C1)C2`, the GI50 (KM12) is reported as 55.8 µM (inactive), the GI50 (MDA-N) is reported as 18.7 µM (inactive) and the GI50 (UACC-62) is reported as 2.38 µM (inactive). For the same compound, the GI50 (MOLT-4) was 18.4 µM (inactive), the GI50 (U-251) was 17.8 µM (inactive) and the GI50 (RPMI-8226) was 24.8 µM (inactive). The GI50 (SK-MEL-5) was 16 µM (inactive), the GI50 (A498) was 30.3 µM (inactive) and the GI50 (HCC 2998) was 59 µM (inactive). The GI50 (PC-3) was 25.9 µM (inactive), the GI50 (LOX IMVI) was 18.4 µM (inactive) and the GI50 (M14) was 13.1 µM (inactive). For the same compound, the GI50 (OVCAR-4) was 17.6 µM (inactive), the GI50 (NCI-H522) was 48.4 µM (inactive) and the GI50 (RXF 393) was > 100 µM (inactive). For the same compound, the GI50 (SN12C) was 18.1 µM (inactive), the GI50 (HCT-116) was > 100 µM (inactive) and the GI50 (IGROV-1) was 20.5 µM (inactive). For the same compound, the GI50 (HL-60) was 19.4 µM (inactive), the GI50 (UO-31) was 31.3 µM (inactive) and the GI50 (ACHN) was 22.1 µM (inactive). The GI50 (Hs-578T) was 3.72 µM (inactive), the GI50 (EKVX) was 15.3 µM (inactive) and the GI50 (NCI/ADR-RES) was 26.5 µM (inactive). The GI50 (A549) was > 100 µM (inactive), the GI50 (COLO 205) was 21.8 µM (inactive) and the GI50 (HOP-62) was 16.1 µM (inactive). The GI50 (SR) was 2.82 µM (inactive), the GI50 (MCF7) was 31 µM (inactive) and the GI50 (MDA-MB-231) was 13.5 µM (inactive). The GI50 (SK-MEL-2) was 11.2 µM (inactive), the GI50 (OVCAR-3) was 14.3 µM (inactive) and the GI50 (NCI-H23) was 23.3 µM (inactive). The GI50 (SF-295) was 31.3 µM (inactive), the GI50 (TK-10) was 36.6 µM (inactive) and the GI50 (T47D) was 25.9 µM (inactive). The GI50 (HT-29) was 23.4 µM (inactive), the GI50 (MDA-MB-435) was 16.7 µM (inactive) and the GI50 (OVCAR-8) was 19.3 µM (inactive). The GI50 (OVCAR-5) was > 100 µM (inactive), the GI50 (SK-OV-3) was 38.1 µM (inactive) and the GI50 (K562) was 22.1 µM (inactive). For the same compound, the GI50 (HCT-15) was 11.5 µM, the GI50 (CCRF-CEM) was 7.78 µM (inactive) and the GI50 (HOP-92) was 16.4 µM (inactive). The GI50 (SF-539) was 17.3 µM (inactive), the GI50 (NCI-H226) was 22.5 µM (inactive) and the GI50 (UACC-257) was 20.5 µM (inactive). For the same compound, the GI50 (Malme-3M) was 18.2 µM (inactive) and the GI50 (786-0) was 14.2 µM (inactive).
For `NC(=O)CC(Nc1ncc2c(n1)-c1ccccc1OC2)C(=O)O` (stereo not given), the GI50 (KM12) was > 100 µM (inactive), the GI50 (MDA-N) was > 100 µM (inactive) and the GI50 (UACC-62) was > 100 µM (inactive). For the same compound, the GI50 (MOLT-4) was > 100 µM (inactive), the GI50 (SF-268) was > 100 µM (inactive) and the GI50 (U-251) was > 100 µM (inactive). The GI50 (RPMI-8226) was 26 µM (inactive), the GI50 (SK-MEL-5) was > 100 µM (inactive) and the GI50 (PC-3) was > 100 µM (inactive). For the same compound, the GI50 (LOX IMVI) was > 100 µM (inactive), the GI50 (CAKI-1) was 43.1 µM (inactive) and the GI50 (M14) was > 100 µM (inactive). For the same compound, the GI50 (SNB-19) was > 100 µM (inactive), the GI50 (SNB-75) was 67.9 µM (inactive) and the GI50 (OVCAR-4) was > 100 µM (inactive). The GI50 (NCI-H522) was > 100 µM (inactive), the GI50 (RXF 393) was > 100 µM (inactive) and the GI50 (SN12C) was > 100 µM (inactive). The GI50 (HCT-116) was > 100 µM (inactive), the GI50 (IGROV-1) was 24.2 µM (inactive) and the GI50 (DU-145) was > 100 µM (inactive). For the same compound, the GI50 (HL-60) was 14.9 µM (inactive), the GI50 (UO-31) was > 100 µM (inactive) and the GI50 (ACHN) was > 100 µM (inactive). The GI50 (Hs-578T) was > 100 µM (inactive), the GI50 (EKVX) was 59.6 µM (inactive) and the GI50 (NCI/ADR-RES) was > 100 µM (inactive). The GI50 (A549) was > 100 µM (inactive), the GI50 (COLO 205) was > 100 µM (inactive) and the GI50 (HOP-62) was > 100 µM (inactive). For the same compound, the GI50 (SR) was > 100 µM (inactive), the GI50 (MCF7) was 77.6 µM (inactive) and the GI50 (MDA-MB-231) was > 100 µM (inactive). For the same compound, the GI50 (SK-MEL-2) was > 100 µM (inactive), the GI50 (OVCAR-3) was > 100 µM (inactive) and the GI50 (NCI-H23) was > 100 µM (inactive). For the same compound, the GI50 (NCI-H460) was > 100 µM (inactive), the GI50 (SF-295) was > 100 µM (inactive) and the GI50 (SK-MEL-28) was > 100 µM (inactive). For the same compound, the GI50 (TK-10) was > 100 µM (inactive), the GI50 (SW-620) was > 100 µM (inactive) and the GI50 (HT-29) was 64.3 µM (inactive). For the same compound, the GI50 (MDA-MB-435) was > 100 µM (inactive), the GI50 (OVCAR-8) was > 100 µM (inactive) and the GI50 (OVCAR-5) was > 100 µM (inactive). The GI50 (SK-OV-3) was > 100 µM (inactive), the GI50 (K562) was > 100 µM (inactive) and the GI50 (HCT-15) was 85.7 µM. For the same compound, the GI50 (CCRF-CEM) was > 100 µM (inactive), the GI50 (HOP-92) was > 100 µM (inactive) and the GI50 (SF-539) was > 100 µM (inactive). The GI50 (NCI-H226) was 71.1 µM (inactive), the GI50 (UACC-257) was 61.7 µM (inactive) and the GI50 (Malme-3M) was 92 µM (inactive). The GI50 (786-0) was > 100 µM (inactive).
